Assay results taken from US20090209619A1, “Depression of herg k+ channel function in mammallan cells and applications to the control of cancer cells division” (priority 2004, published 2009).
Marks after values point to notes of the source that are not given here.

Columns and labels:
[1] = system: MCF-7 cells; conditions: cited from earlier work
[2] = system: MCF-7; test: Cancer cell proliferation by population doubling time (PDT), MCF-7; format: cell-based, human; conditions: blocker 1 μM; for population doubling time: 30 min in serum-free medium, cells counted 5 h and 48 h after seeding
Method: (§1) The human breast cancer cell lines MCF-7, BT132, and Sk-Br-3, human neuroblastoma cell line SHSY5Y, murine atrial tumor cell line HL-1 were used. These cell are known to express HERG channels. For chemical blocking of HERG conductance, tumor cells were incubated with dofetilide (1 μM), the anti-arrhythmic agent E4031 (1 μM) or cisapride (1 μM) for 30 min in serum-free medium. Control experiments wherein no dofetilide, no E-4031 and no cisapride was used were also performed.
(§2) Cell proliferation was assessed by characterizing the log phase growth with population doubling time (PDT) calculated by the equation: 1/(3.32*(log NH−log NI)/(t2−t1)), where NH is the number of cells harvested at the end of the growth period (at time t2) and NI is the number of cells at 5 hours (t1) after seed. Cells were counted by a flow cytometer (EPICS XL; Beckman Coulter Canada, Inc.), and the number obtained at 5 h (t1) after seeding was taken as an initial cell number (NI), and the number at 48 h (t2) after seeding was taken as an endpoint number (NH). The longer the PDT is, the slower the growth is.
(§3) In experiments involving interference RNA, in this case siRNA, the cells were transfected with siRNA using lipofectamine-2000 as a carrier to deliver the siRNA to the cells, according to the manufacturer's protocols. The sequence of our siRNA targeting HERG position 3498 bp is […] (SEQ ID NO:1). A negative control targeting the following sequence: […] (SEQ ID NO:2) has been used. The siRNA is designed as cassette using U6 as the promoter and its efficacy was validated by its ability to decrease HERG mRNA by around 78% determined by real-time RT-PCR. SiRNA targeting the following 2 target sequences: […] (SEQ ID 03) (starting at 255 bp) and […] (SEQ ID 04) (starting at 2609 bp) has also been tested. As an siRNA cassette is used, these sequences (SEQ ID 01-04) are also DNA sequences that are injected in the cells to produce in situ the siRNA that will interfere with expression of the HERG gene.

[3] = system: Sk-Br-3; test: Cancer cell proliferation by population doubling time (PDT), Sk-Br-3; format: cell-based, human; conditions: blocker 1 μM; for population doubling time: 30 min in serum-free medium, cells counted 5 h and 48 h after seeding
Method: as §1, §2, §3

[4] = system: BT132; test: Cancer cell proliferation by population doubling time (PDT), BT132; format: cell-based, human; conditions: blocker 1 μM; for population doubling time: 30 min in serum-free medium, cells counted 5 h and 48 h after seeding
Method: as §1, §2, §3

[5] = system: SHSY5Y; test: Cancer cell proliferation by population doubling time (PDT), SHSY5Y; format: cell-based, human; conditions: blocker 1 μM; for population doubling time: 30 min in serum-free medium, cells counted 5 h and 48 h after seeding
Method: as §1, §2, §3

[6] = system: HL-1; test: Cancer cell proliferation by population doubling time (PDT), HL-1; format: cell-based, murine; conditions: blocker 1 μM; for population doubling time: 30 min in serum-free medium, cells counted 5 h and 48 h after seeding
Method: as §1, §2, §3

[7] = system: MCF-7; test: Tumor growth in nude mice inoculated subcutaneously with MCF-7; conditions: for tumor volume, Day 7 / tumor volume, Day 1: MCF-7 tumor in nude mice, 5 μg/tumor single intratumoral injection; for tumor volume, Day 7: 7 days after treatment; for tumor volume, Day 1: day of treatment; for % changes of tumor volume over control: MCF-7 tumor, 5 μg/tumor, day 7
[8] = system: SK-BR-3; test: Tumor growth in nude mice inoculated subcutaneously with SK-BR-3; conditions: for tumor volume, Day 7 / tumor volume, Day 1: Sk-Br-3 tumor in nude mice, 5 μg/tumor single intratumoral injection; for tumor volume, Day 7: 7 days after treatment; for tumor volume, Day 1: day of treatment; for % changes of tumor volume over control: Sk-Br-3 tumor, 5 μg/tumor, day 7
[9] = biological target: T1, EAG (Homo sapiens, UniProt O95259); conditions: extracellular perfusion; cited from earlier work
T1 sequence (O95259 1-989): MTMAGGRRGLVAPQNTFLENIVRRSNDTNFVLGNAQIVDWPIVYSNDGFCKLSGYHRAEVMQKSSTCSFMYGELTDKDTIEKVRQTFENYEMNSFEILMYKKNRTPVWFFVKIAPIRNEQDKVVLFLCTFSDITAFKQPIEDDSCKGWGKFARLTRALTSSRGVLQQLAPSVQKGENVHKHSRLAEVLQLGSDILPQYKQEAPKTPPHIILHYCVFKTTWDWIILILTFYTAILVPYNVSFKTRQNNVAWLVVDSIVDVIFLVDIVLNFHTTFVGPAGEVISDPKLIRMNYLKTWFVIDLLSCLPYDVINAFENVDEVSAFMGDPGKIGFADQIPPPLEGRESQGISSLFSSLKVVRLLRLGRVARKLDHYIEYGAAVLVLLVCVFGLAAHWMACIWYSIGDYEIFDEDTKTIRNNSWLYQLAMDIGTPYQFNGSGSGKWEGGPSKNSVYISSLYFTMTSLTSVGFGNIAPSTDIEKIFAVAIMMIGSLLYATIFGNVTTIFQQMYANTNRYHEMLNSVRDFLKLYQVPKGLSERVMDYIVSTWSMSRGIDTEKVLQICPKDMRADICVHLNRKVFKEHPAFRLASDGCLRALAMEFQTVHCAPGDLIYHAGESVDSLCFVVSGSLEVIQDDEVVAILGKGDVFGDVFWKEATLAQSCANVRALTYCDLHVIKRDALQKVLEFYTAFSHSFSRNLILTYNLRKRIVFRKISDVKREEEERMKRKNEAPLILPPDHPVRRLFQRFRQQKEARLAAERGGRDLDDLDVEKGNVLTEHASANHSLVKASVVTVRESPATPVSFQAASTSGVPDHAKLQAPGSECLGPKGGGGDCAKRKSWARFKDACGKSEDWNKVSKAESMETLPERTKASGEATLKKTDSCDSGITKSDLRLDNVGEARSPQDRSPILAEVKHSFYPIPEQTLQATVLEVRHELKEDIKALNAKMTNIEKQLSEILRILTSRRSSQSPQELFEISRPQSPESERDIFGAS

Row | SMILES | effect on growth/proliferation of MCF-7 human breast cancer cells [1] | % changes of population doubling time over control [2] | population doubling time [2] | % changes of population doubling time over control [3] | population doubling time [3] | % changes of population doubling time over control [4] | population doubling time [4] | % changes of population doubling time over control [5] | population doubling time [5] | % changes of population doubling time over control [6] | population doubling time [6] | tumor volume, Day 7 [7] | tumor volume, Day 1 [7] | % changes of tumor volume over control [7] | tumor volume, Day 7 [8] | tumor volume, Day 1 [8] | % changes of tumor volume over control [8] | inhibition of cell proliferation ([1]; extracellular perfusion, cell line not given) | inhibition of EAG current [9]
1 | Cc1cc(N)c2ccccc2[n+]1CCCCCCCCCC[n+]1c(C)cc(N)c2ccccc21 [dequalinium] | inhibitory effects | – | – | – | – | – | – | – | – | – | – | – | – | – | – | – | – | – | –
2 | CN(CCOc1ccc(NS(C)(=O)=O)cc1)CCc1ccc(NS(C)(=O)=O)cc1 [Dofetilide, dofetilide] | – | 55% | 70.4 ± 6.2* hours | 128% | 184.0 ± 16.6* hours | 56% | 84.8 ± 7.5* hours | 59% | 95.2 ± 10.2* hours | 30% | 85.5 ± 9.2 h | – | – | – | – | – | – | – | –
3 | COc1cc(N)c(Cl)cc1C(=O)NC1CCN(CCCOc2ccc(F)cc2)CC1OC (stereo not shown) [Cisapride, cisapride] | – | 58% | 71.7 ± 7.3* hours | 114% | 174.3 ± 17.7* hours | 62% | 88.1 ± 9.0* hours | 57% | 92.0 ± 8.3* hours | 47% | 100.3 ± 9.8* hours | 3.0 ± 0.4^+ cm^3 | 3.2 ± 0.5 cm^3 | −42% | 3.1 ± 0.3^+ cm^3 | 2.4 ± 1.3 cm^3 | −45% | – | –
4 | COc1ccc(CCN2CCC(Nc3nc4ccccc4n3Cc3ccc(F)cc3)CC2)cc1 [astemizole] | – | – | – | – | – | – | – | – | – | – | – | – | – | – | – | – | – | ~23% | ~20%
5 | CCCCc1oc2ccccc2c1C(=O)c1cc(I)c(OCCN(CC)CC)c(I)c1 [amiodarone] | inhibitory effects | – | – | – | – | – | – | – | – | – | – | – | – | – | – | – | – | – | –
6 | Cc1cccc(CCN2CCC(C(=O)c3ccc(NS(C)(=O)=O)cc3)CC2)n1 [E-4031] | – | 43% | 64.9 ± 11.5* hours | 98% | 165.3 ± 15.2* hours | 48% | 80.5 ± 8.2* hours | 70% | 101.8 ± 11.5* hours | 37% | 93.5 ± 10.0* hours | 3.7 ± 0.8^+ cm^3 | 3.5 ± 0.6 cm^3 | −30% | 4.1 ± 0.6*^+ cm^3 | 2.1 ± 1.0 cm^3 | −28% | – | –
